How the values were obtained:
Ikaros = test: Intracellular Ikaros expression in BCMA-bead stimulated anti-BCMA CAR T cells (flow cytometry, MFI); assay type: cell-based, human
Procedure: (§1) A BCMA-Fc fusion protein containing the extracellular domain of human BCMA and a human IgG1Fc was conjugated to beads by covalently coupling to the surface of commercially available tosyl-activated magnetic beads having a diameter of approximately […] (M-450 beads, ThermoFisher, Waltham Mass.) (see e.g. International published PCT App. No. WO2019/027850). Following incubation, anti-BCMA CAR-expressing T cells were stained with antibodies and analyzed by flow cytometry to assess intracellular levels of Ikaros and Aiolos in CD4+CAR+ or CD8+CAR+ cells, as measured by median fluorescence intensity (MFI). Median fluorescence intensity (MFI) values for Ikaros and Aiolos were normalized and calculated as a percentage relative to vehicle control.

[1] = tested on: IMiD/CELMoD resistant cell line DF-15R; test: Rescue: rechallenge of chronically stimulated anti-BCMA CAR T cells with DF-15R; assay type: cell-based, human; conditions: DF-15R rechallenge after 7-day chronic stimulation
Procedure: Studies were undertaken to determine whether Compound A (iberdomide, (S)-3-[4-(4-morpholin-4-ylmethyl-benzyloxy)-1-oxo-1,3-dihydro-isoindol-2-yl]-piperidine-2,6-dione) rescued anti-BCMA CAR T cell function following chronic stimulation. To directly stimulate via CAR engagement to induce chronic stimulation of cells, anti-BCMA CAR T cells were stimulated with BCMA conjugated beads (diameter about 4.5 μm from a 50 μg/ml BCMA-conjugated bead composition, generated as described in Example 9) at a ratio of T cells to beads of 1:1. The cells were then incubated at 37° C., 5% CO2 for 7 days.
To further elucidate the role of Compound A on the target cells compared to the CAR T cell intrinsic effects, the IMiD/CELMoD resistant cell line DF-15R was also used to rechallenge anti-BCMA CAR T cells that had been chronically stimulated for 7 days. Cytolytic activity and cytokine production following the rechallenge were assessed as described above.

RPMI-8226 target cells = test: Acute co-culture cytokine secretion of anti-BCMA CAR T cells with RPMI-8226; assay type: cell-based, human; conditions: RPMI-8226, E:T 1:1, 24 hours, 0.01-10,000 nM, FIG. 2A
Procedure: Anti-tumor effects of anti-BCMA CAR T cells, alone and in combination with cell immunomodulatory compounds Compound A (iberdomide, (S)-3-[4-(4-morpholin-4-ylmethyl-benzyloxy)-1-oxo-1,3-dihydro-isoindol-2-yl]-piperidine-2,6-dione) or Compound B ((S)-4-(4-(4-(((2-(2,6-dioxopiperidin-3-yl)-1-oxoisoindolin-4-yl)oxy)methyl)benzyl)piperazin-1-yl)-3-fluorobenzonitrile), were assessed in two different BCMA-expressing target multiple myeloma cell lines RPMI-8226 or OPM-2. Anti-BCMA CAR+ T cells were generated as described in Example 1.
The anti-BCMA CAR-expressing T cells were incubated with target cells, RPMI 8226 (BCMA^med human multiple myeloma cell line) or OPM2 cells (BCMA^med human multiple myeloma cell line) target cells, at an E:T ratio of 1:1. The co-culture incubation with target cells was carried out in the presence of Compound A (0.01 nM, 0.1 nM, 1 nM, 10 nM, 100 nM, 1000 nM, or 10,000 nM) or Compound B (0.01 nM, 0.1 nM, 1 nM, 10 nM, 100 nM, 1000 nM, or 10,000 nM).

Aiolos = test: Intracellular Aiolos expression in BCMA-bead stimulated anti-BCMA CAR T cells (flow cytometry, MFI); assay type: cell-based, human; conditions: CD4+CAR+ or CD8+CAR+ cells; 24 or 72 hours; lenalidomide 1000 nM, Compound A 1, 10, 100 nM, Compound B 0.1, 1, 10 nM
Procedure: as §1

[2] = tested on: OPM2 (multiple myeloma) cells; test: Murine orthotopic OPM-2 tumor model (sensitive), anti-BCMA CAR T cells plus Compound A; assay type: in vivo, mouse; conditions: for tumor burden (BLI) versus anti-BCMA CAR T cells alone: combination with 0.5×10^6 CAR T cells, 1 or 3 mg/kg oral, FIG. 6A; for survival versus anti-BCMA CAR T cells alone: FIG. 6B
Procedure: Anti-tumor effects of anti-BCMA CAR T cells, alone and in combination with concurrent or delayed administration of Compound A (iberdomide, (S)-3-[4-(4-morpholin ylmethyl-benzyloxy)-1-oxo-1,3-dihydro-isoindol-2-yl]-piperidine-2,6-dione), were assessed in disseminated tumor models. The combinatorial effects were assessed in both tumor models sensitive to and resistant to the immunomodulatory compound. The anti-BCMA CAR T cells used in the study were produced as described in Example 1.
The effects of anti-BCMA CAR-T cells in combination with Compound A was assessed in a murine orthotopic tumor model using OPM-2 cells, which is an tumor model sensitive to the immunomodulatory compound. Mice (NOD.Cg-Prkdc^scidIL-2rg^tm1Wj1/SzJ mice (NSG; Jackson Labs)) were injected intravenously (i.v.) with 2×10^6 OPM2 (multiple myeloma) cells transfected with firefly luciferase (OPM2-ffluc). Tumor engraftment was allowed to occur for 13 days prior to staging (14 days before CAR-T cell administration) and verified using bioluminescence imaging.
In one study, mice were administered Compound A (1 mg/kg or 3 mg/kg) via oral administration once a day starting from the day before administration of 0.5×10^6 anti-BCMA CAR T cells, and administration of Compound A was continued once a day until 32 days post-CAR T cell administration (concurrent dosing). In another study, mice were administered 0.5×10^6 anti-BCMA CAR T cells, and then Compound A (1 mg/kg or 3 mg/kg) was administered via oral administration once a day starting 12 days after anti-CAR T cell administration, which was after the peak of CAR-expressing T cell expansion, and administration was continued for 21 days until 32 days post-CAR T cell administration (delayed dosing).
For bioluminescence imaging (BLI), mice received intraperitoneal (i.p.) injections of luciferin substrate (CaliperLife Sciences, Hopkinton, Mass.) resuspended in PBS (15 μg/g body weight). The average radiance (p/s/cm^2/sr) was determined. Survival of mice treated as described above were assessed and compared over time post-infusion of CAR-expressing T cells. Survival curves were generated using the Kaplan-Meier method (GraphPad Prism 7.0, GraphPad Software, La Jolla).
The numbers of CD3+ CAR T cells were determined in the blood at day 6 and day 14 by flow cytometry using antibodies directed against CD3 and the surrogate marker on the CAR-expressing cells.

CAR-expressing T cells = test: Prolonged treatment: long-term proliferative potential of CAR-expressing T cells; assay type: cell-based; parameters: long term product performance: dose or concentration left out as unconfirmed

O=C1CC[C@H](N2Cc3c(OCc4ccc(CN5CCOCC5)cc4)cccc3C2=O)C(=O)N1 [Compound A, (S)-3-[4-(4-morpholin-4-ylmethyl-benzyloxy)-1-oxo-1,3-dihydro-isoindol-2-yl]-piperidine-2,6-dione]
intracellular Ikaros expression (MFI, percentage relative to vehicle control) (Ikaros; CD4+CAR+ or CD8+CAR+ cells, 24 or 72 hours, lenalidomide 1000 nM, Compound A 1, 10, 100 nM, Compound B 0.1, 1, 10 nM): concentration dependent decrease
potency in decreasing Ikaros and Aiolos expression, compared with lenalidomide (Ikaros; stimulated anti-BCMA CAR T cells): more potent than lenalidomide
cytolytic activity ([1]; Compound A 1 or 10 nM, FIG. 11A): increased cytolytic activity
cytokine production (IFN-gamma, IL-2, TNF-alpha) ([1]; FIG. 11B-D): increased
CAR T cytokine production (IL-2, TNFα, IFN-gamma in supernatant) (RPMI-8226 target cells): enhanced
intracellular Aiolos expression (MFI, percentage relative to vehicle control) (Aiolos): concentration dependent decrease
single agent antitumor activity ([2]; Compound A alone, 1 or 3 mg/kg oral once a day): some single agent antitumor activity
tumor burden (BLI) versus anti-BCMA CAR T cells alone ([2]; concurrent dosing): reduce tumor burden
tumor burden (BLI) versus anti-BCMA CAR T cells alone ([2]; delayed dosing from day 12): reduce tumor burden
survival versus anti-BCMA CAR T cells alone ([2]; combination, concurrent dosing): improve survival
numbers of CD3+ CAR+ T cells in the blood ([2]; combination, concurrent regimen, day 6 and day 14, FIG. 6C): trend towards increased numbers
survival versus anti-BCMA CAR T cells alone ([2]; combination, delayed dosing): improve survival
long term product performance (CAR-expressing T cells; higher concentrations): detrimental
long-term proliferative potential of CAR-expressing T cells (CAR-expressing T cells; prolonged treatment, 10 or 100 nM): increase long-term proliferative potential

Source: US20230165872A1, “COMBINATION OF BCMA-DIRECTED T CELL THERAPY AND AN IMMUNOMODULATORY COMPOUND” (Juno Therapeutics, Inc., priority 2020, published 2023)
